In PubChem BioAssay AID256 (DTP/NCI, 2004) one finds T/C data, which are given here for 15 molecules.

The structures appear in SMILES notation. Values joined by “and” are separate entries in the source; they are usually repeats but may differ in a detail not shown here. Equal values may be shown once. Toxic doses and inconclusive results are not listed.

In this assay the test system is CD2F1 mice, L1210 leukemia ip, survival T/C. Put plainly: NCI In Vivo Anticancer Drug Screen. Data for tumor model L1210 Leukemia (intraperitoneal) in CD2F1 (CDF1) mice. The following applies: endpoint: mean survival time, higher = longer survival. Summed up:
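Activity against a transplanted murine tumor was judged by comparing the compound group with a vehicle group. The outcome in the treated animals was divided by that in the controls.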

[1] abbreviates: dose: 100.0 mg/kg/injection, schedule: Q01DX009 (ip), vehicle: saline with Tween-80.
[2] abbreviates: dose: 200.0 mg/kg/injection, schedule: Q01DX009 (ip), vehicle: saline with Tween-80.
Setting [3] is: dose: 100.0 mg/kg/injection, schedule: Q04DX003 (ip), vehicle: saline with Tween-80.
[4] abbreviates: dose: 200.0 mg/kg/injection, schedule: Q04DX003 (ip), vehicle: saline with Tween-80.
The mark [5] stands for this setting: dose: 400.0 mg/kg/injection, schedule: Q04DX003 (ip), vehicle: saline with Tween-80.
The mark [6] stands for this setting: dose: 50.0 mg/kg/injection, schedule: Q01DX009 (ip), vehicle: saline with Tween-80.

For the molecule `C=CCNC(=S)NCC`, the T/C under setting [1] was 98 % of control; the T/C (dose: 100.0 mg/kg/injection, schedule: Q04DX003 (ip), vehicle: saline sonified) was 101 % of control; the T/C under setting [2] is 101 % of control; the T/C (dose: 200.0 mg/kg/injection, schedule: Q04DX003 (ip), vehicle: saline sonified) was 97 % of control; the T/C (dose: 400.0 mg/kg/injection, schedule: Q01DX009 (ip), vehicle: saline with Tween-80) is 102 % of control; the T/C (dose: 400.0 mg/kg/injection, schedule: Q04DX003 (ip), vehicle: saline sonified) is 101 % of control.

`OC1CCCCC1O` (stereo not drawn): the T/C was 101 % of control under setting [3], 100 % of control under setting [4] and 103 % of control under setting [5].

On to `Nc1cc(Nc2ccc(Cl)cc2)c2nc(-c3ccc(Cl)cc3)c(-c3ccc(Cl)cc3)nc2n1`, for which the T/C by setting is: under setting [3], 100 % of control; under setting [4], 107 % of control; under setting [5], 107 % of control.

For `Nc1ncnc2nc(-c3ccccc3)[nH]c12`, the T/C is, setting by setting: under setting [3], 100 % of control; under setting [4], 99 % of control; under setting [5], 99 % of control.

Consider `C=CCOCC(O)CNc1ccccc1` (stereo not drawn), for which the T/C is 101 % of control under setting [6], 101 % of control under setting [1] and 96 % of control under setting [2].

In the case of `CCN(CC)CCSCCSCCN(CC)CC`, the T/C is, setting by setting: (dose: 100.0 mg/kg/injection, schedule: Q01DX001 (ip), vehicle: saline) 100 % of control; (dose: 200.0 mg/kg/injection, schedule: Q01DX001 (ip), vehicle: saline) 100 % of control.

Take `Nc1nc(N)c2nc(CNc3ccc(C(=O)NC(CCC(=O)NC(CCC(=O)O)C(=O)O)C(=O)O)cc3)cnc2n1` (stereo not drawn): the T/C runs as follows: (dose: 0.7 mg/kg/injection, schedule: Q01DX009 (ip), vehicle: sodium bicarbonate) 96 % of control; (dose: 1.1 mg/kg/injection, schedule: Q01DX009 (ip), vehicle: sodium bicarbonate) 92 % of control.

In the case of `OC1CCCCC12CC2` (stereo not drawn), the T/C is 102 % of control under setting [3], 104 % of control under setting [4] and 113 % of control under setting [5].

For the molecule `CC(=O)OCC1OC(n2cc(CBr)nn2)C(OC(C)=O)C(OC(C)=O)C1OC(C)=O` (stereo not drawn), the T/C reads like this: (dose: 3.12 mg/kg/injection, schedule: Q01DX009 (ip), vehicle: saline with Tween-80) 94 % of control and 96 % of control; (dose: 6.25 mg/kg/injection, schedule: Q01DX009 (ip), vehicle: saline with Tween-80) 98 % of control and 102 % of control; (dose: 6.25 mg/kg/injection, schedule: Q01DX009 (ip), vehicle: suspension in saline) 101 % of control; (dose: 6.25 mg/kg/injection, schedule: Q04DX003 (ip), vehicle: suspension in saline) 100 % of control; (dose: 7.5 mg/kg/injection, schedule: Q01DX009 (ip), vehicle: saline) 98 % of control; (dose: 12.5 mg/kg/injection, schedule: Q01DX009 (ip), vehicle: saline with Tween-80) 94 % of control and 104 % of control. Moreover, the T/C (dose: 12.5 mg/kg/injection, schedule: Q01DX009 (ip), vehicle: suspension in saline) is 102 % of control; the T/C (dose: 12.5 mg/kg/injection, schedule: Q04DX003 (ip), vehicle: suspension in saline) was 107 % of control; the T/C (dose: 15.0 mg/kg/injection, schedule: Q01DX009 (ip), vehicle: saline) was 100 % of control; the T/C (dose: 25.0 mg/kg/injection, schedule: Q01DX009 (ip), vehicle: saline with Tween-80) is 102 % of control and 108 % of control; the T/C (dose: 25.0 mg/kg/injection, schedule: Q01DX009 (ip), vehicle: suspension in saline) was 101 % of control; the T/C (dose: 25.0 mg/kg/injection, schedule: Q04DX003 (ip), vehicle: suspension in saline) was 100 % of control. For the same molecule, the T/C is 98 % of control (dose: 30.0 mg/kg/injection, schedule: Q01DX009 (ip), vehicle: saline); 95 % of control and 102 % of control under setting [6]; 96 % of control (dose: 50.0 mg/kg/injection, schedule: Q01DX009 (ip), vehicle: suspension in saline); 103 % of control (dose: 50.0 mg/kg/injection, schedule: Q04DX003 (ip), vehicle: suspension in saline); 102 % of control (dose: 60.0 mg/kg/injection, schedule: Q01DX009 (ip), vehicle: saline); 102 % of control under setting [1].

Consider `Cc1ccc([P+](Cc2ccccc2)(c2ccccc2)c2ccccc2)cc1`, for which the T/C (dose: 5.0 mg/kg/injection, schedule: Q01DX001 (ip), vehicle: saline) was 108 % of control; the T/C (dose: 10.0 mg/kg/injection, schedule: Q01DX001 (ip), vehicle: saline) was 105 % of control; the T/C (dose: 20.0 mg/kg/injection, schedule: Q01DX001 (ip), vehicle: saline) is 96 % of control; the T/C (dose: 40.0 mg/kg/injection, schedule: Q01DX001 (ip), vehicle: saline) was 109 % of control.

For `O=C(NC(=S)Nc1cccc(F)c1)c1cccc(Br)c1`, the T/C (dose: 50.0 mg/kg/injection, schedule: Q01DX009 (ip), vehicle: other) is 98 % of control and 104 % of control; the T/C (dose: 50.0 mg/kg/injection, schedule: Q04DX003 (ip), vehicle: other) is 111 % of control; the T/C (dose: 100.0 mg/kg/injection, schedule: Q01DX001 (ip), vehicle: other) is 102 % of control; the T/C (dose: 100.0 mg/kg/injection, schedule: Q04DX002 (ip), vehicle: other) was 95 % of control; the T/C (dose: 100.0 mg/kg/injection, schedule: Q04DX003 (ip), vehicle: other) is 104 % of control; the T/C (dose: 200.0 mg/kg/injection, schedule: Q01DX001 (ip), vehicle: other) was 98 % of control. Moreover, the T/C is, setting by setting: (dose: 200.0 mg/kg/injection, schedule: Q04DX002 (ip), vehicle: other) 91 % of control; (dose: 200.0 mg/kg/injection, schedule: Q04DX003 (ip), vehicle: other) 102 % of control; (dose: 400.0 mg/kg/injection, schedule: Q04DX002 (ip), vehicle: other) 101 % of control; (dose: 400.0 mg/kg/injection, schedule: Q04DX003 (ip), vehicle: other) 106 % of control.

As to `CCCCCOC(=S)S.[Pt]`, the T/C (dose: 6.25 mg/kg/injection, schedule: Q04DX003 (ip), vehicle: saline with Tween-80) is 101 % of control; the T/C (dose: 12.5 mg/kg/injection, schedule: Q04DX003 (ip), vehicle: saline with Tween-80) was 104 % of control; the T/C (dose: 25.0 mg/kg/injection, schedule: Q04DX003 (ip), vehicle: saline with Tween-80) is 108 % of control; the T/C (dose: 50.0 mg/kg/injection, schedule: Q04DX003 (ip), vehicle: saline with Tween-80) is 101 % of control; the T/C under setting [3] is 104 % of control.

As for `[Cl][Pt+2][Cl].[NH-]CC(C[NH-])(Cc1ccccc1)Cc1ccccc1`, the T/C (dose: 3.12 mg/kg/injection, schedule: Q04DX003 (ip), vehicle: saline) is 97 % of control; the T/C (dose: 6.25 mg/kg/injection, schedule: Q04DX003 (ip), vehicle: saline) is 103 % of control and 111 % of control; the T/C (dose: 12.5 mg/kg/injection, schedule: Q04DX003 (ip), vehicle: saline) is 115 % of control and 111 % of control; the T/C (dose: 25.0 mg/kg/injection, schedule: Q04DX003 (ip), vehicle: saline) was 115 % of control; the T/C (dose: 200.0 mg/kg/injection, schedule: Q04DX003 (ip), vehicle: saline) is 172 % of control.

In the case of `CC(C)C1=CC2=CCC3C(C)(CN)CCCC3(C)C2CC1CCN` (stereo not drawn), the T/C by setting is: (dose: 1.25 mg/kg/injection, schedule: Q01DX009 (ip), vehicle: saline with Tween-80) 101 % of control; (dose: 2.5 mg/kg/injection, schedule: Q01DX009 (ip), vehicle: saline with Tween-80) 97 % of control; (dose: 5.0 mg/kg/injection, schedule: Q01DX009 (ip), vehicle: saline with Tween-80) 94 % of control.

Consider `O=C(O)CS` (tested in a mixture with another compound), for which the T/C is 102 % of control (dose: 12.5 mg/kg/injection, schedule: Q01DX009 (ip), vehicle: saline); 93 % of control (dose: 25.0 mg/kg/injection, schedule: Q01DX009 (ip), vehicle: saline); 93 % of control (dose: 100.0 mg/kg/injection, schedule: Q01DX009 (ip), vehicle: saline).
